Data taken from publication PMC5430962, “Retro-inverso Urokinase Receptor Antagonists for the Treatment of Metastatic Sarcomas” (Scientific Reports, 2017).
[ ]: non-standard residue; d: D form. Aib = CC(C)(N)C(=O)O

How the values were obtained:
HT1080 cells = assay: Cell proliferation, MTS assay; type: cell-based, human; conditions: 10 µM in growth medium, replaced every 24 hr
Protocol: Cell proliferation was assessed using the xCELLigence RTCA technology as described. Cells (2 × 10^3/well) were seeded in E-well plates in growth medium and left to growth for 85 hr in the presence or the absence of 10 µM RI-3. For MTS assay, cells seeded on plates in growth medium plus/minus 10 µM RI-3, were allowed to proliferate at 37 °C in 5% CO2 and the absorbance of adherent cells stained with tetrazolium/formazan was assessed with a microplate reader. In both cases, medium with or without RI-3 was replaced every 24 hr. Data are the means ± SD of three independent experiments, performed in triplicate.

GFP-tagged Sarc cells = assay: Growth and spread of subcutaneous GFP-tagged Sarc tumors in nude mice; type: in vivo, Foxn1nu/nu female nude mice; conditions: five mice per group
Protocol: To evaluate the effect of RI-3 on tumor growth and vascularization, Sarc cells were injected, as a single-cell suspension (1 × 10^6 cells in 100 µl of sterile PBS, 97% viability), subcutaneously in the flanks of sixteen six-eight weeks old, Foxn1nu/nu female nude mice (Harlan). Animals were randomized into two 8-mice groups with the treatment group receiving 6 mg/kg RI-3 by intra-peritoneal injection every 24 hr, and the control group receiving an equivalent injected volume of vehicle (PBS) only. Time-dependent average weight was monitored every two days. The length and the width of tumors were measured at different time points with a calliper and volumes were calculated using the formula: ½ × (width)[2] × length (mm). After 10 days, blood samples (at least 500 µL/mouse) from the retro-orbital venous plexus of mice anesthetized with 1% isoflurane were collected using a heparinized capillary tube and processed for determination of the Circulating Tumor Cells (CTCs). Then, the animals were sacrificed, the excised tumors were fixed in buffered formalin and processed for paraffin sectioning. Tumor vascularization was assessed by counting vascular channels harbouring red blood cells on CD31 immuno-stained sections in 5 randomly chosen fields per section, in at least two sections per tumor at x 200 as described. Two additional experiments were carried out with the same experimental design by injecting GFP-tagged Sarc cells (1 × 10^6 cells/mouse) subcutaneously in the flanks of twenty-five six-eight weeks old, Foxn1nu/nu female nude mice (Harlan). Animals were treated with 6 mg/kg RI-3, 6 mg/kg RERF or vehicle by intra-peritoneal injection every 24 hr for 10 or 12 days. Tumor growth and the appearance of positive tumor lesions near tumors and in lungs were monitored as brightly visualized by GFP fluorescence with a MacroFluo fluorescence stereomicroscope (Leica). We searched for the presence of GFP-positive nodules on the entire surface of freshly isolated lungs. Lungs were also sliced at approximately 3-mm thickness to examine the parenchyma in depth, and the positive nodules were acquired at higher magnification.

[1] = Stability in bovine serum, read out as inhibition of HT1080 migration (xCELLigence); type: in vitro ADME; conditions: pre-incubated at 10^−3 M in bovine serum 18 hr at 37 °C, tested at 10 nM on HT1080 migration 18 hr, quadruplicate
Protocol: A major limitation of peptides for use as therapeutics is susceptibility to degradation by serum proteases. The stability of RI-3 in bovine and human serum was investigated by comparing inhibitory activities of RI-3 and RI-3 pre-incubated at 10^−3 M with serum for 18 hr at 37 °C on cell migration and invasion. HT1080 cells were allowed to migrate for 18 hr toward DMEM (CTRL), 10% FBS (None), 10% FBS plus 10 nM RI-3 or 10% FBS with 10 nM RI-3 pre-incubated in bovine serum. […] The stability of RI-3 in human serum was investigated in cell invasion experiments performed in Boyden chambers. […]
(a) HT1080 cells were allowed to migrate in real time for 18 hr toward DMEM (CTRL), or 10% FBS in the absence (None) or the presence of 10 nM RI-3 or 10 nM RI-3 pre-incubated at 10^−3 M in bovine serum for 18 hr at 37 °C. […] The basal value assessed in the absence of FBS (CTRL) was taken as 100% and all values were reported relative to that. Data are the means ± SD three independent experiments, performed in triplicate. *Indicates statistical significance calculated against None, with *P < 0.05, **P < 0.0001. (c) Cell proliferation of HT1080 cells assessed by MTS assay. […] At the indicated times, the absorbance of adherent cells was assessed with a microplate reader. […]

Ac-[dY][dR][Aib][dR]-NH2 (SMILES CC(=O)N[C@H](Cc1ccc(O)cc1)C(=O)N[C@H](CCCNC(=N)N)C(=O)NC(C)(C)C(=O)N[C@H](CCCNC(=N)N)C(N)=O) [RI-3]
effect on number of metabolically active cells (MTS) (HT1080 cells): no difference was apparent
changes in body weight (GFP-tagged Sarc cells; 6 mg/Kg i.p. every day for 12 days): did not cause changes in body weight
lungs with GFP-positive nodules (MacroFluo) (GFP-tagged Sarc cells; 6 mg/Kg i.p. every day for 12 days, untreated 3/5): negative
volume of tumors after 12 days (GFP-tagged Sarc cells; 6 mg/Kg i.p. every day for 12 days, vehicle 678 +/− 169): 381 +/− 123 mm^3
animals with subcutaneous GFP-positive lesions distant at least one centimeter from the primary tumors (GFP-tagged Sarc cells; set-up experiment, 6 mg/Kg i.p. every day, sacrifice after 12 days, vehicle 4/5): 2/5
cell index curves of migrating cells, peptide vs peptide pre-incubated in bovine serum [1]: overlapping curves
